Reference: ChEMBL document CHEMBL5579809, “Exploration of bromodomain ligand-linker conjugation sites for efficient CBP/p300 heterobifunctional degrader activity” (Bioorg Med Chem Lett, 2024)
The source made the active and inactive calls. No cut-off for these calls is given here.

Columns and labels:
[1] = molecular target: T1, Protein cereblon/CREB-binding protein (Homo sapiens) (UniProt Q92793+Q96SW2); assay: PROTAC activity at CRBN/HiBiT-tagged CBP in human HAP1 cells assessed as induction of CBP degradation by measuring maximal efficacy at 0.1 nM measured over 24 hrs by luminescence based analysis relative to control; assay type: cell-based
[2] = molecular target: T1, Protein cereblon/CREB-binding protein (Homo sapiens); assay: PROTAC activity at CRBN/HiBiT-tagged CBP in human HAP1 cells assessed as induction of CBP degradation by measuring maximal efficacy at 1 nM measured over 24 hrs by luminescence based analysis relative to control; assay type: cell-based
[3] = molecular target: T1, Protein cereblon/CREB-binding protein (Homo sapiens); assay: PROTAC activity at CRBN/HiBiT-tagged CBP in human HAP1 cells assessed as induction of CBP degradation by measuring maximal efficacy at 10 nM measured over 24 hrs by luminescence based analysis relative to control; assay type: cell-based
[4] = molecular target: T1, Protein cereblon/CREB-binding protein (Homo sapiens); assay: PROTAC activity at CRBN/HiBiT-tagged CBP in human HAP1 cells assessed as induction of CBP degradation by measuring maximal efficacy at 100 nM measured over 24 hrs by luminescence based analysis relative to control; assay type: cell-based
[5] = molecular target: T1, Protein cereblon/CREB-binding protein (Homo sapiens); assay: PROTAC activity at CRBN/HiBiT-tagged CBP in human HAP1 cells assessed as induction of CBP degradation by measuring maximal efficacy at 1000 nM measured over 24 hrs by luminescence based analysis relative to control; assay type: cell-based
[6] = molecular target: T1, Protein cereblon/CREB-binding protein (Homo sapiens); assay: PROTAC activity at CRBN/HiBiT-tagged CBP in human HAP1 cells assessed as induction of CBP degradation by measuring degradation rate at 0.1 nM measured over 24 hrs by luminescence based analysis; assay type: cell-based
[7] = molecular target: T1, Protein cereblon/CREB-binding protein (Homo sapiens); assay: PROTAC activity at CRBN/HiBiT-tagged CBP in human HAP1 cells assessed as induction of CBP degradation by measuring degradation rate at 1 nM measured over 24 hrs by luminescence based analysis; assay type: cell-based
[8] = molecular target: T1, Protein cereblon/CREB-binding protein (Homo sapiens); assay: PROTAC activity at CRBN/HiBiT-tagged CBP in human HAP1 cells assessed as induction of CBP degradation by measuring degradation rate at 10 nM measured over 24 hrs by luminescence based analysis; assay type: cell-based
[9] = molecular target: T1, Protein cereblon/CREB-binding protein (Homo sapiens); assay: PROTAC activity at CRBN/HiBiT-tagged CBP in human HAP1 cells assessed as induction of CBP degradation by measuring degradation rate at 100 nM measured over 24 hrs by luminescence based analysis; assay type: cell-based
[10] = molecular target: T1, Protein cereblon/CREB-binding protein (Homo sapiens); assay: PROTAC activity at CRBN/HiBiT-tagged CBP in human HAP1 cells assessed as induction of CBP degradation by measuring degradation rate at 1000 nM measured over 24 hrs by luminescence based analysis; assay type: cell-based
[11] = molecular target: T1, Protein cereblon/CREB-binding protein (Homo sapiens); assay: PROTAC activity at CRBN/HiBiT-tagged CBP in human HAP1 cells assessed as total cumulative degradation by measuring AUC at 0.01 nM measured over 24 hrs by luminescence based analysis; assay type: cell-based
[12] = molecular target: T1, Protein cereblon/CREB-binding protein (Homo sapiens); assay: PROTAC activity at CRBN/HiBiT-tagged CBP in human HAP1 cells assessed as total cumulative degradation by measuring AUC at 0.1 nM measured over 24 hrs by luminescence based analysis; assay type: cell-based
[13] = molecular target: T1, Protein cereblon/CREB-binding protein (Homo sapiens); assay: PROTAC activity at CRBN/HiBiT-tagged CBP in human HAP1 cells assessed as total cumulative degradation by measuring AUC at 1 nM measured over 24 hrs by luminescence based analysis; assay type: cell-based
[14] = molecular target: T1, Protein cereblon/CREB-binding protein (Homo sapiens); assay: PROTAC activity at CRBN/HiBiT-tagged CBP in human HAP1 cells assessed as total cumulative degradation by measuring AUC at 10 nM measured over 24 hrs by luminescence based analysis; assay type: cell-based
[15] = molecular target: T1, Protein cereblon/CREB-binding protein (Homo sapiens); assay: PROTAC activity at CRBN/HiBiT-tagged CBP in human HAP1 cells assessed as total cumulative degradation by measuring AUC at 100 nM measured over 24 hrs by luminescence based analysis; assay type: cell-based
[16] = molecular target: T1, Protein cereblon/CREB-binding protein (Homo sapiens); assay: PROTAC activity at CRBN/HiBiT-tagged CBP in human HAP1 cells assessed as total cumulative degradation by measuring AUC at 1000 nM measured over 24 hrs by luminescence based analysis; assay type: cell-based
[17] = molecular target: T2, Protein cereblon/Histone acetyltransferase p300 (Homo sapiens) (UniProt Q09472+Q96SW2); assay: PROTAC activity at CRBN/HiBiT-tagged p300 in human HAP1 cells assessed as induction of p300 degradation by measuring degradation rate at 0.1 nM measured over 24 hrs by luminescence based analysis; assay type: cell-based
[18] = molecular target: T2, Protein cereblon/Histone acetyltransferase p300 (Homo sapiens); assay: PROTAC activity at CRBN/HiBiT-tagged p300 in human HAP1 cells assessed as induction of p300 degradation by measuring degradation rate at 1 nM measured over 24 hrs by luminescence based analysis; assay type: cell-based
[19] = molecular target: T2, Protein cereblon/Histone acetyltransferase p300 (Homo sapiens); assay: PROTAC activity at CRBN/HiBiT-tagged p300 in human HAP1 cells assessed as induction of p300 degradation by measuring degradation rate at 10 nM measured over 24 hrs by luminescence based analysis; assay type: cell-based
[20] = molecular target: T2, Protein cereblon/Histone acetyltransferase p300 (Homo sapiens); assay: PROTAC activity at CRBN/HiBiT-tagged p300 in human HAP1 cells assessed as induction of p300 degradation by measuring degradation rate at 100 nM measured over 24 hrs by luminescence based analysis; assay type: cell-based
[21] = molecular target: T2, Protein cereblon/Histone acetyltransferase p300 (Homo sapiens); assay: PROTAC activity at CRBN/HiBiT-tagged p300 in human HAP1 cells assessed as induction of p300 degradation by measuring degradation rate at 1000 nM measured over 24 hrs by luminescence based analysis; assay type: cell-based
[22] = molecular target: T2, Protein cereblon/Histone acetyltransferase p300 (Homo sapiens); assay: PROTAC activity at CRBN/HiBiT-tagged p300 in human HAP1 cells assessed as induction of p300 degradation by measuring maximal efficacy at 0.1 nM measured over 24 hrs by luminescence based analysis relative to control; assay type: cell-based
[23] = molecular target: T2, Protein cereblon/Histone acetyltransferase p300 (Homo sapiens); assay: PROTAC activity at CRBN/HiBiT-tagged p300 in human HAP1 cells assessed as induction of p300 degradation by measuring maximal efficacy at 1 nM measured over 24 hrs by luminescence based analysis relative to control; assay type: cell-based
[24] = molecular target: T2, Protein cereblon/Histone acetyltransferase p300 (Homo sapiens); assay: PROTAC activity at CRBN/HiBiT-tagged p300 in human HAP1 cells assessed as induction of p300 degradation by measuring maximal efficacy at 10 nM measured over 24 hrs by luminescence based analysis relative to control; assay type: cell-based
[25] = molecular target: T2, Protein cereblon/Histone acetyltransferase p300 (Homo sapiens); assay: PROTAC activity at CRBN/HiBiT-tagged p300 in human HAP1 cells assessed as induction of p300 degradation by measuring maximal efficacy at 100 nM measured over 24 hrs by luminescence based analysis relative to control; assay type: cell-based
[26] = molecular target: T2, Protein cereblon/Histone acetyltransferase p300 (Homo sapiens); assay: PROTAC activity at CRBN/HiBiT-tagged p300 in human HAP1 cells assessed as induction of p300 degradation by measuring maximal efficacy at 1000 nM measured over 24 hrs by luminescence based analysis relative to control; assay type: cell-based
[27] = molecular target: T2, Protein cereblon/Histone acetyltransferase p300 (Homo sapiens); assay: PROTAC activity at CRBN/HiBiT-tagged p300 in human HAP1 cells assessed as total cumulative degradation by measuring AUC at 0.01 nM measured over 24 hrs by luminescence based analysis; assay type: cell-based
[28] = molecular target: T2, Protein cereblon/Histone acetyltransferase p300 (Homo sapiens); assay: PROTAC activity at CRBN/HiBiT-tagged p300 in human HAP1 cells assessed as total cumulative degradation by measuring AUC at 0.1 nM measured over 24 hrs by luminescence based analysis; assay type: cell-based
[29] = molecular target: T2, Protein cereblon/Histone acetyltransferase p300 (Homo sapiens); assay: PROTAC activity at CRBN/HiBiT-tagged p300 in human HAP1 cells assessed as total cumulative degradation by measuring AUC at 1 nM measured over 24 hrs by luminescence based analysis; assay type: cell-based
[30] = molecular target: T2, Protein cereblon/Histone acetyltransferase p300 (Homo sapiens); assay: PROTAC activity at CRBN/HiBiT-tagged p300 in human HAP1 cells assessed as total cumulative degradation by measuring AUC at 10 nM measured over 24 hrs by luminescence based analysis; assay type: cell-based
[31] = molecular target: T2, Protein cereblon/Histone acetyltransferase p300 (Homo sapiens); assay: PROTAC activity at CRBN/HiBiT-tagged p300 in human HAP1 cells assessed as total cumulative degradation by measuring AUC at 100 nM measured over 24 hrs by luminescence based analysis; assay type: cell-based
[32] = molecular target: T2, Protein cereblon/Histone acetyltransferase p300 (Homo sapiens); assay: PROTAC activity at CRBN/HiBiT-tagged p300 in human HAP1 cells assessed as total cumulative degradation by measuring AUC at 1000 nM measured over 24 hrs by luminescence based analysis; assay type: cell-based
[33] = molecular target: Protein cereblon/Bromodomain-containing protein 4 (Homo sapiens) (UniProt O60885+Q96SW2); assay: PROTAC activity at CRBN/HiBiT-tagged BRD4 in human HAP1 cells assessed as induction of BRD4 degradation measured over 24 hrs by luminescence based analysis; assay type: cell-based
[34] = molecular target: T2, Protein cereblon/Histone acetyltransferase p300 (Homo sapiens); assay: Binding affinity to recombinant CRBN/p300 bromodomain (unknown origin) assessed as ternary complex formation at 10 to 100 nM by Alphascreen-based proximity assay; assay type: protein assay; details: dose 10-100 nM
[35] = molecular target: T1, Protein cereblon/CREB-binding protein (Homo sapiens); assay: Binding affinity to recombinant CRBN/CBP bromodomain (unknown origin) assessed as ternary complex formation at 10 to 100 nM by Alphascreen-based proximity assay; assay type: protein assay; details: dose 10-100 nM
[36] = molecular target: T2, Protein cereblon/Histone acetyltransferase p300 (Homo sapiens); assay: Binding affinity to recombinant CRBN/p300 bromodomain (unknown origin) assessed as ternary complex formation at 1 to 1000 nM by Alphascreen-based proximity assay; assay type: protein assay; details: dose 1-1000 nM
[37] = molecular target: T1, Protein cereblon/CREB-binding protein (Homo sapiens); assay: Binding affinity to recombinant CRBN/CBP bromodomain (unknown origin) assessed as ternary complex formation at 1 to 1000 nM by Alphascreen-based proximity assay; assay type: protein assay; details: dose 1-1000 nM

T1 sequence (Q92793 2-2442 limits assumed): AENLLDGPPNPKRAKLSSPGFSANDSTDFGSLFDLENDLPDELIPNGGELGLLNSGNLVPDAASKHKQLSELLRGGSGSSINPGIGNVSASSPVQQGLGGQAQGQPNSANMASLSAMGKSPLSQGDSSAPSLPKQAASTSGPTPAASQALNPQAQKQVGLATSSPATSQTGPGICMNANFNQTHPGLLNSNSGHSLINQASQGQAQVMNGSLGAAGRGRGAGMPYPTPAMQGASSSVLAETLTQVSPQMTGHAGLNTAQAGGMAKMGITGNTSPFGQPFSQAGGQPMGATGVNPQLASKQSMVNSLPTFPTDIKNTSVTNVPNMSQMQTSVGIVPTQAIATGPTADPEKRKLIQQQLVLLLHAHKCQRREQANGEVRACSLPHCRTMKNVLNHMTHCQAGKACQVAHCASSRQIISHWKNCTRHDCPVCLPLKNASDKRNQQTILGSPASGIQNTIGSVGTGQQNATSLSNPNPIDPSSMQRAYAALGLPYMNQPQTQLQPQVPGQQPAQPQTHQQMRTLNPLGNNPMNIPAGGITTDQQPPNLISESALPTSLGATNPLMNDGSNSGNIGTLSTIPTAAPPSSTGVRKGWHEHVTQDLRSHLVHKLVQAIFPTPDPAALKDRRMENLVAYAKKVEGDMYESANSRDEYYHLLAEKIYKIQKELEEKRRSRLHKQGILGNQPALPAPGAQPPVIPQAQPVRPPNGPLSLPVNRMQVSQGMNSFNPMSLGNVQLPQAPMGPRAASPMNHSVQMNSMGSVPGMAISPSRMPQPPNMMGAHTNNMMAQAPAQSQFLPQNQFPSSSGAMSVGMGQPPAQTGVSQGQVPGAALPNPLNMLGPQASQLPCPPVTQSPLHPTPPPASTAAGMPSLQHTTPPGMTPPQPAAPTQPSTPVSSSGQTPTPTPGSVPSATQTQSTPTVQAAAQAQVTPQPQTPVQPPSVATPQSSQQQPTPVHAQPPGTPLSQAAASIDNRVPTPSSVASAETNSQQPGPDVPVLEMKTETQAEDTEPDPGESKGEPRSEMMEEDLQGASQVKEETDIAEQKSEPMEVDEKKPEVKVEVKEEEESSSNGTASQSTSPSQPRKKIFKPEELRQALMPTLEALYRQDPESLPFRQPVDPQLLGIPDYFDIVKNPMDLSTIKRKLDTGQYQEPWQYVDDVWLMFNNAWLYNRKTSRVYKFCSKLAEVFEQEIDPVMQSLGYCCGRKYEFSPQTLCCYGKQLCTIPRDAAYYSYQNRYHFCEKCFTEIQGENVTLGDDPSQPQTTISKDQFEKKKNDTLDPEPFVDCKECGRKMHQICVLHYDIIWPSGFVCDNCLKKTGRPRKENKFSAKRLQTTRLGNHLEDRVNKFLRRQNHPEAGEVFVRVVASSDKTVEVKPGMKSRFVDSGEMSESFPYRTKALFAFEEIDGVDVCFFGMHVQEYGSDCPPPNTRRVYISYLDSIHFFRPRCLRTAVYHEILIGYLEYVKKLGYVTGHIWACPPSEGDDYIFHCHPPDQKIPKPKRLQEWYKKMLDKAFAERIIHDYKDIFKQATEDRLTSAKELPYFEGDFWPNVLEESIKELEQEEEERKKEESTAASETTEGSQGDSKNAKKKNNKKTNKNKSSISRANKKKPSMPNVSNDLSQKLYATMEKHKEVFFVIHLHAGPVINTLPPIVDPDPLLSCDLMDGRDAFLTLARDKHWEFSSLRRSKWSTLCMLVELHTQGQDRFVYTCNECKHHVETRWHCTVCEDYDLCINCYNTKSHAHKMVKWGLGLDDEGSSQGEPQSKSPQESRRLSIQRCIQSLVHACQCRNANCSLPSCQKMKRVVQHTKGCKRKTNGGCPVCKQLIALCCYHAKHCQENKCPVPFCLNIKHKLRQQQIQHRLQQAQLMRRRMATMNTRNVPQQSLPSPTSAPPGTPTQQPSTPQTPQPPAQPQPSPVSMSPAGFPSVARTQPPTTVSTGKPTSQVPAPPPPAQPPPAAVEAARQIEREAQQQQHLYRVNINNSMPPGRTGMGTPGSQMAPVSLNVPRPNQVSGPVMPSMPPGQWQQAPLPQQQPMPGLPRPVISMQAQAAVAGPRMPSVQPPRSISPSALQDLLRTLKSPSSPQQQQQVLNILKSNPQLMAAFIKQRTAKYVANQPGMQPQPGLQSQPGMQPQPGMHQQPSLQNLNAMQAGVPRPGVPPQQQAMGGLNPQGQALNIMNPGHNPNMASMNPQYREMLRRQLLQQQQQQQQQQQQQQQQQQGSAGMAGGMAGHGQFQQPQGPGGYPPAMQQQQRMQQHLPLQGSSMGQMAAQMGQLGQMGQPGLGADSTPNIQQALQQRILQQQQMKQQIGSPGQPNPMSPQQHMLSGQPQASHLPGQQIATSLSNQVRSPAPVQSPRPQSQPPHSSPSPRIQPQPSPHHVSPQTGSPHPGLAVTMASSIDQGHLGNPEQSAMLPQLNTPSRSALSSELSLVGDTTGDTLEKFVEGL
T1 sequence (Q96SW2 whole entry partner): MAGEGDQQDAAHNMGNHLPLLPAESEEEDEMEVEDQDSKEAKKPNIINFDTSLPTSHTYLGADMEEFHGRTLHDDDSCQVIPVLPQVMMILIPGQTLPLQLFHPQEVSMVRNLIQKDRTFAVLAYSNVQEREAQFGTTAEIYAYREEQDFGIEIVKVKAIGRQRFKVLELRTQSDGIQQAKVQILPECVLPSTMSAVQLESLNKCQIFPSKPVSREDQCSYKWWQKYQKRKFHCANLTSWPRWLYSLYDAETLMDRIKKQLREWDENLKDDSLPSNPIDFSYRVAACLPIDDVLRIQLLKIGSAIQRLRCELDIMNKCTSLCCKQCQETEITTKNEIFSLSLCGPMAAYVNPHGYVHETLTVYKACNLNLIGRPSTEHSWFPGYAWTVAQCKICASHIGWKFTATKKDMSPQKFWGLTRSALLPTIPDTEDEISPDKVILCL
Sequence of Protein cereblon/Bromodomain-containing protein 4 (Homo sapiens) (Q96SW2 whole entry, looked up, other chains not shown): as the sequence (Q96SW2 whole entry partner) above

Emax [1] [%] | Emax [2] [%] | Emax [3] [%] | Emax [4] [%] | Emax [5] [%] | Activity [6] | Activity [7] [h⁻¹] | Activity [8] [h⁻¹] | Activity [9] [h⁻¹] | Activity [10] [h⁻¹] | AUC [11] | AUC [12] | AUC [13] | AUC [14] | AUC [15] | AUC [16] | Activity [18] [h⁻¹] | Activity [19] [h⁻¹] | Activity [20] [h⁻¹] | Activity [21] [h⁻¹] | SMILES | further results
20 | 61 | 85 | 88 | 80 | 0.21 h⁻¹ | 0.63 | 1.3 | 0.83 | 0.32 | 24.1 | 20.8 | 10.7 | 4.4 | 4 | 7.4 | 0.41 | 1.3 | 1 | 0.42 | CNC(=O)N1CCc2c(c(N3CCCc4cc(-c5cnn(C)c5)c(C(F)(F)F)cc43)nn2C2CCN(C(=O)CCOCCOCCOCCOCCNc3ccc4c(c3)C(=O)N(C3CCC(=O)NC3=O)C4=O)CC2)C1 (stereo not drawn) | Activity [17]: 1 10^-4/hr; Emax [22]: 17%; Emax [23]: 56%; Emax [24]: 82%; Emax [25]: 88%; Emax [26]: 84%; AUC [27]: 26.5; AUC [28]: 23.2; AUC [29]: 12.3; AUC [30]: 5.2; AUC [31]: 3.9; AUC [32]: 6; Activity [33]: inactive; Activity [34]: Active; Activity [35]: Active
11 | 44 | 68 | 65 | 64 | 1.2 10^-4/hr | 0.26 | 0.31 | 0.19 | 0.36 | 25.6 | 23.7 | 15.6 | 10.3 | 12.1 | 19.5 | 0.2 | 0.35 | 0.29 | 0.09 | CNC(=O)N1CCc2c(c(N3CCCc4cc(-c5cnn(C)c5)c(C(F)F)cc43)nn2C2CCN(C(=O)CCOCCNc3ccc4c(c3)C(=O)N(C3CCC(=O)NC3=O)C4=O)CC2)C1 (stereo not drawn) | Emax [23]: 44%; Emax [24]: 71%; Emax [25]: 73%; Emax [26]: 58%; AUC [27]: 27.3; AUC [28]: 24.7; AUC [29]: 16.1; AUC [30]: 9.2; AUC [31]: 9.4; AUC [32]: 16.5; Activity [33]: inactive; Activity [34]: Active; Activity [35]: Active
25 | 63 | 86 | 89 | 83 | 0.12 h⁻¹ | 0.54 | 1.1 | 0.81 | 0.4 | 24.7 | 20.7 | 10.4 | 4.4 | 3.9 | 6.4 | 0.37 | 1 | 1 | 0.57 | CNC(=O)N1CCc2c(c(N3CCCc4cc(-c5cnn(C)c5)c(C(F)F)cc43)nn2C2CCN(C(=O)CCOCCOCCOCCOCCNc3ccc4c(c3)C(=O)N(C3CCC(=O)NC3=O)C4=O)CC2)C1 (stereo not drawn) | Activity [17]: 0.02 h⁻¹; Emax [22]: 27%; Emax [23]: 57%; Emax [24]: 83%; Emax [25]: 88%; Emax [26]: 86%; AUC [27]: 26.1; AUC [28]: 21.7; AUC [29]: 12.2; AUC [30]: 5.1; AUC [31]: 3.7; AUC [32]: 4.8; Activity [33]: inactive; Activity [36]: Active; Activity [37]: Active
